What was measured:
[1] = biological target: ERα_LBD(GST) (Homo sapiens (Human), UniProt P03372); assay: LanthaScreen TR-FRET ERα competitive binding assay; settings: read-out: ERα HTRF IC50
Description: • 1. ERα_LBD(GST) protein: 4 nM • 2. Tb Anti-GST: 2 nM • 3. Fluormone ES2 Green tracer: 3 nM • 4. Incubation time: 60 min • 5. DMSO: 1% • 6. Assay buffer: Adding 1M DTT to Nuclear receptor Buffer K for final 5 mM DTT. • 7. ZPE: 1% DMSO • 8. HPE: 1 μM ARV_471 • 9. LanthaScreen® TR-FRET ERα Competitive Binding Assay (ThermoFisher, #A15887)
• 1) Cherry pick 2 μL 10 mM compound stock to column 1 of a 384 intermediate plate • 2) Add 18 μL DMSO to column 1 to dilute compound to 1 mM. • 3) Transfer 10 μL 1 mM compound to column 1 of a LDV plate. • 2) Add 6 μl DMSO to column 2-10 of the LDV plate. • 3) Compounds undergo 3-fold serial dilution (3 μL+6 μL) in DMSO. • 4) Transfer 120 nL compound solution to assay plate. • ZPE: 120 nL 100% DMSO
Prepare complete nuclear receptor buffer K by adding 1 M DTT to nuclear receptor buffer K for a final concentration of 5 mM DTT. Complete nuclear receptor buffer K must be prepared fresh daily. Prepare 2× protein solution using complete nuclear receptor buffer K containing 8 nM ERα_LBD(GST) and 4 nM Tb Anti-GST. Then, prepare 2× Fluormone ES2 Green tracer (6 nM) using complete nuclear receptor buffer K. Add 6 μL 2× Fluormone ES2 green tracer into a compound plate (PerkinElmer 6008289) by dragonfly with one-tips-addition. Subsequently, add 6 μL 2× protein solution into the plate. Briefly and gently mix the 384-well plate on a plate shaker and incubate at room temperature protected from light for 60 min. The plate is sealed with a cover to minimize evaporation. Read the plate at wavelengths of 520 nm and 495 nm. Calculate the TR-FRET ratio by dividing the emission signal at 520 nm by the emission signal at 495 nm. Generate a binding curve by plotting the emission ratio vs. the log [ligand]. To determine the IC50 value, fit the data using XL-fit for a sigmoidal dose-response.

[2] = biological target: T1, ER (Homo sapiens (Human), UniProt P03372); assay: In-cell western (ICW) ER degradation assay in MCF-7 cells; assay type: cell-based; settings: MCF7, 16 hrs; for DC50: ER degradation; for Dmax: MCF7, maximal ER degradation
[3] = biological target: CRBN/DDB1 (Homo sapiens (Human), UniProt Q96SW2); assay: HTRF binding assay to CRBN/DDB1; settings: read-out: CRBN HTRF IC50
Description: The binding potency was determined using HTRF assay technology (Perkin Elmer). Compounds were serially diluted in DMSO and 0.2 μL volume was transferred to white 384-well plate.

[4] = biological target: T1, ER; assay: In-cell western (ICW) ER degradation assay in T47D cells; assay type: cell-based; settings: 16 hrs; for DC50: ER degradation
[5] = test system: T47D cells; assay: cells; settings: Homo sapiens, 144 h, read-out: T47D Proliferation IC50 (nM)
Description: (§1) In vitro assay can be accomplished by MCF-7 and T47D Cell Titer Glo (CTG) assay. MCF-7 and T47D cell (From HDB) are cultured in multi-well white plate with phenol red-free RPMI1640+10% CS-FBS+1% P/S medium (e.g., at 1,000 cells/well). On day 0: Cells are treated with compound at certain concentrations (e.g., 0.5 to 10000 nM) (DMSO and Staurosporine as control). On day 0 and day 6: add Cell Titer Glo reagent and read on EnVision after 30 min incubation for data generation.
(§2) • 1) Cell culture medium: phenol red-free RPMI1640+10% CS-FBS, 1% P/S
(§3) Day-1: MCF-7 and T47D cell (From HDB) were cultured in 384-well white plate with phenol red-free RPMI1640+10% CS-FBS+1% P/S medium (1,000 cells/well) for overnight at 37° C., 5% CO2 incubator.
(§4) Day 0: Cells were treated at desired compound concentrations (0.5 to 10000 nM) (DMSO and Staurosporine as control) for Day 6 at 37° C., 5% CO2 incubator.
(§5) Day 0 and Day 6: add Cell TiterGlo reagent and read on EnVision after 30 min incubation for data generation.

[6] = test system: MCF-7 cells; assay: cells; settings: Homo sapiens, MCF7, 144 h, read-out: MCF7 Proliferation IC50 (nM)
Description: as §1, §2, §3, §4, §5

ERα_LBD(GST), sequence (P03372 311-547): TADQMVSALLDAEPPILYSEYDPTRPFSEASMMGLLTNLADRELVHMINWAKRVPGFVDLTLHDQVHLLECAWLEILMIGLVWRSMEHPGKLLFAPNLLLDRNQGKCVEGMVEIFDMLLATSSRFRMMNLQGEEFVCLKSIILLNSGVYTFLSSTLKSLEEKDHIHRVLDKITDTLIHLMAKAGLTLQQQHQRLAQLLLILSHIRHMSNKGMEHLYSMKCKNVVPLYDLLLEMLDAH
CRBN/DDB1, sequence (Q96SW2 whole entry): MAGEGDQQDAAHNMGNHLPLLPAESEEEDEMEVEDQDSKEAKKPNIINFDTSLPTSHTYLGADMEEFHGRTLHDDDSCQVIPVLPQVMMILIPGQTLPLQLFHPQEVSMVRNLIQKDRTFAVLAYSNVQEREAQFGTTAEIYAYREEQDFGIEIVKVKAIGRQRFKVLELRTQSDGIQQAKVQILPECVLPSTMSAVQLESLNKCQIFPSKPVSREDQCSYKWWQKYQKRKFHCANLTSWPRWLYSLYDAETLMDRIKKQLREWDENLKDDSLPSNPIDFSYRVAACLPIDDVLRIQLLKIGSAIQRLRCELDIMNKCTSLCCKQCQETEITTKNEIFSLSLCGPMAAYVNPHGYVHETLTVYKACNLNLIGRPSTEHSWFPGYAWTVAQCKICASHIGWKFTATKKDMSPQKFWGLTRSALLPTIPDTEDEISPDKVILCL
CRBN/DDB1, sequence (Q16531 whole entry partner): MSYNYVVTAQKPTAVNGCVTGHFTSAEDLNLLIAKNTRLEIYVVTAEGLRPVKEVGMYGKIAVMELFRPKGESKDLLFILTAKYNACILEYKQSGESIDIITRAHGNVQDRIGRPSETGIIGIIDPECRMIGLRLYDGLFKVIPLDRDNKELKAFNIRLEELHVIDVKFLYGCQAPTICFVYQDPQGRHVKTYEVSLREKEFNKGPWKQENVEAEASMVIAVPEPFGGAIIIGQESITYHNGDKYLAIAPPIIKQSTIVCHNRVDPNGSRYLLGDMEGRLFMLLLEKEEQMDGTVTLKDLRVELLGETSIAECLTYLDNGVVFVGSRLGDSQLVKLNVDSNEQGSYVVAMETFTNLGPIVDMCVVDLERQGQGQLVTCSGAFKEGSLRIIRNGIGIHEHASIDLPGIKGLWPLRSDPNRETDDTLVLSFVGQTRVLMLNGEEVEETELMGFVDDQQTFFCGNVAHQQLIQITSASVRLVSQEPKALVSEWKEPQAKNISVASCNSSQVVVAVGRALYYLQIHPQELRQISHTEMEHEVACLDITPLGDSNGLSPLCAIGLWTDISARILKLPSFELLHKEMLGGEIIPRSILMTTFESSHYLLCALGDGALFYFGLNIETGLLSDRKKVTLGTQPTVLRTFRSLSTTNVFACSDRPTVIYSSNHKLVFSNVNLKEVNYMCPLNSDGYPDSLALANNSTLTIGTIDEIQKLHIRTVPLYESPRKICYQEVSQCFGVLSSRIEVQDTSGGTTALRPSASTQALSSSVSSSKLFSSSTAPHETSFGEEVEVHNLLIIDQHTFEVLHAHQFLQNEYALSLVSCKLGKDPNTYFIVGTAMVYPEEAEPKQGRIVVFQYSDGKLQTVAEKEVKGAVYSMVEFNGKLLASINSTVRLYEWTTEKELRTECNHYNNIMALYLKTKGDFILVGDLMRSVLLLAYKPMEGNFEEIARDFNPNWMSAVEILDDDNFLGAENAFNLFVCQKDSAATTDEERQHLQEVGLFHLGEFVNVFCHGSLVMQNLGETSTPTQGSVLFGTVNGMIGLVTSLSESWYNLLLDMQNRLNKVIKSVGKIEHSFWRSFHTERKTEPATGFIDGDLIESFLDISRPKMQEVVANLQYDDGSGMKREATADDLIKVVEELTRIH
T1 sequence (P03372 whole entry): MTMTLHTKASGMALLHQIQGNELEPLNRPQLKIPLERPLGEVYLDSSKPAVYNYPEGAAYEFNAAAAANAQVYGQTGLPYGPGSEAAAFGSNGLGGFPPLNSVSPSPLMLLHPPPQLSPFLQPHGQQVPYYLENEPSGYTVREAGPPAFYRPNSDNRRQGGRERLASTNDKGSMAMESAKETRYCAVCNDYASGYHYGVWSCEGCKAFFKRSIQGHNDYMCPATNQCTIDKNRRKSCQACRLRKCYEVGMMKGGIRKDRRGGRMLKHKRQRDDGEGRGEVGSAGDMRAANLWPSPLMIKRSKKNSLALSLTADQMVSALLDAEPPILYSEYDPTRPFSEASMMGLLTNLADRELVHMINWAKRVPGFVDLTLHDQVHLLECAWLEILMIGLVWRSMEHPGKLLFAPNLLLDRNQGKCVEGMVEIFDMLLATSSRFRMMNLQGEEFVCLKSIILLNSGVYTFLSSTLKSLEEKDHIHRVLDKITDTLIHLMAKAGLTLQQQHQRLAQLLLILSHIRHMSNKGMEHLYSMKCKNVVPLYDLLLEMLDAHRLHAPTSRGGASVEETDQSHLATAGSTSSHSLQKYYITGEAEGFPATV

SMILES | IC50 [1] [nM] | DC50 [2] [nM] | Dmax [2] [%] | IC50 [3] [nM] | DC50 [4] [nM] | Dmax ([4]; maximal ER degradation) [%] | IC50 [5] [nM] | IC50 [6] [nM] | MCF7 Dmax % ([2]; maximal ER degradation) | T47D Dmax % ([4]; maximal ER degradation)
O=C1CCC(N2Cc3cc4c(cc3C2=O)CN(C(=O)CN2CCC3(CC2)CN(c2ccc([C@@H]5c6ccc(O)cc6OC[C@@H]5c5ccccc5)cc2)C3)C4)C(=O)N1 (stereo partly drawn) [Compound A49, 3-(6-(2-(2-(4-((3S,4R)-7-hydroxy-3-phenylchroman-4-yl)phenyl)-2,7-diazaspiro[3.5]nonan-7-yl)acetyl)-1-oxo-3,5,6,7-tetrahydropyrrolo[3,4-f]isoindol-2(1H)-yl)piperidine-2,6-dione] | < 5 | 1 to 10 | 50 to 75 | 50 to 500 | 1 to 10 | 50 to 75 | – | – | – | –
O=C1CCC(N2Cc3c(ccc4c3OC[C@H]3CN(CC5CCN(c6ccc([C@H]7c8ccc(O)cc8OC[C@H]7c7ccccc7)cn6)CC5)CCN43)C2=O)C(=O)N1 (single isomer, unassigned) [Compound A64] | < 5 | 1 to 10 | 25 to 50 | 50 to 500 | 1 to 10 | 50 to 75 | – | – | – | –
O=C1CC[C@@H](Nc2ccc(C3CCN(CC4CCC5(CC4)CN(c4ccc([C@H]6c7ccc(O)cc7OC[C@H]6c6ccccc6)cc4)C5)CC3)cc2)C(=O)N1 (single isomer, unassigned) [Compound A140] | < 5 | < 1 | 50 to 75 | 500 to 5000 | < 1 | 50 to 75 | – | – | – | –
O=C1CC[C@H](NC(=O)c2ccc3c(n2)OC[C@H]2CN(CC4CCC5(CC4)CN(c4ccc([C@@H]6c7ccc(O)cc7OC[C@@H]6c6ccccc6)cc4)C5)CCN32)C(=O)N1 [Compound A142, (R)-N-((S)-2,6-dioxopiperidin-3-yl)-3-((2-(4-((3S,4R)-7-hydroxy-3-phenylchroman-4-yl)phenyl)-2-azaspiro[3.5]nonan-7-yl)methyl)-1,2,3,4,4a,5-hexahydropyrazino[1,2-d]pyrido[2,3-b][1,4]oxazine-8-carboxamide] | < 5 | 1 to 10 | 50 to 75 | 500 to 5000 | < 1 | 50 to 75 | – | – | – | –
O=C1CC[C@@H](N2Cc3cc4c(cc3C2=O)OC[C@@H]2CN(CC3CC5(CCN(c6ccc([C@H]7c8ccc(O)cc8OC[C@H]7c7ccccc7)cc6)CC5)C3)CCN42)C(=O)N1 [Compound A96, (R)-3-((S)-3-((7-(4-((3R,4S)-7-hydroxy-3-phenylchroman-4-yl)phenyl)-7-azaspiro[3.5]nonan-2-yl)methyl)-8-oxo-1,2,3,4,4a,5,8,10-octahydro-9H-pyrazino[1′,2′:4,5][1,4]oxazino[2,3-f]isoindol-9-yl)piperidine-2,6-dione] | – | < 1 | 50 to 75 | 50 to 500 | < 1 | 50 to 75 | < 50 | < 50 | – | –
O=C1CCC(N2Cc3c(ccc4c3OCC43CCN(CC4CC5(CCN(c6ccc([C@@H]7c8ccc(O)cc8OC[C@@H]7c7ccccc7)cc6)CC5)C4)CC3)C2=O)C(=O)N1 (stereo partly drawn) [Compound A113, 3-(1′-((7-(4-((3S,4R)-7-hydroxy-3-phenylchroman-4-yl)phenyl)-7-azaspiro[3.5]nonan-2-yl)methyl)-6-oxo-6,8-dihydro-2H,7H-spiro[furo[2,3-e]isoindole-3,4′-piperidin]-7-yl)piperidine-2,6-dione] | – | < 1 | 50 to 75 | < 50 | < 1 | 50 to 75 | > 5000 | < 50 | – | –
COc1cc(N2CCC3(CC2)CC(CN2CCC4(CC2)COc2c4ccc4c2CN(C2CCC(=O)NC2=O)C4=O)C3)c(F)cc1[C@H]1c2ccc(O)cc2OC[C@H]1c1ccccc1 (stereo partly drawn) [Compound A130, 3-(1′-((7-(2-fluoro-4-((3R,4R)-7-hydroxy-3-phenylchroman-4-yl)-5-methoxyphenyl)-7-azaspiro[3.5]nonan-2-yl)methyl)-6-oxo-6,8-dihydro-2H,7H-spiro[furo[2,3-e]isoindole-3,4′-piperidin]-7-yl)piperidine-2,6-dione] | < 5 | < 1 | – | 50 to 500 | < 1 | – | – | – | A (“A”; >=75%) | A (“A”; >=75%)
O=C1CC[C@@H](N2Cc3cc4c(cc3C2=O)CN(C(=O)CN2CCC3(CC2)CCN(c2ccc([C@H]5c6ccc(O)cc6OC[C@H]5c5ccccc5)cc2)CC3)C4)C(=O)N1 (single isomer, unassigned) [Compound A41] | ≥ 5 | 1 to 10 | 50 to 75 | 50 to 500 | < 1 | ≥ 75 | – | – | – | –
O=C1CCC(N2Cc3cc4c(cc3C2=O)CN(C(=O)C2CCN(C3CCN(c5ccc([C@@H]6c7ccc(O)cc7OC[C@@H]6c6ccccc6)cc5)CC3)CC2)C4)C(=O)N1 (single isomer, unassigned) [Compound A81] | < 5 | < 1 | ≥ 75 | 500 to 5000 | < 1 | ≥ 75 | – | – | – | –
O=C1CC[C@H](N2Cc3cc4c(cc3C2)N2CCN(C[C@@H]3COC5(CCN(c6ccc([C@H]7c8ccc(O)cc8OC[C@H]7c7ccccc7)cc6F)CC5)C3)C[C@H]2CO4)C(=O)N1 [Compound A161, (S)-3-((S)-3-(((R)-8-(2-fluoro-4-((3R,4S)-7-hydroxy-3-phenylchroman-4-yl)phenyl)-1-oxa-8-azaspiro[4.5]decan-3-yl)methyl)-1,2,3,4,4a, 5,8,10-octahydro-9H-pyrazino[1′,2′:4,5][1,4]oxazino[2,3-f]isoindol-9-yl)piperidine-2,6-dione] | – | < 1 | 50 to 75 | 50 to 500 | < 1 | ≥ 75 | – | < 50 | – | –
O=C1CCC(N2Cc3c(ccc4c3OC[C@H]3CN(CC5CCN(c6ncc([C@H]7c8ccc(O)cc8OC[C@H]7c7ccccc7)cn6)CC5)CCN43)C2=O)C(=O)N1 (single isomer, unassigned) [Compound A35] | < 5 | 1 to 10 | 25 to 50 | 50 to 500 | 1 to 10 | 50 to 75 | – | – | – | –
O=C1CCC(N2Cc3c(ccc4c3OCC43CCN(CC4COC5(CCN(c6ccc([C@H]7c8ccc(O)cc8OC[C@H]7c7ccccc7)cc6)CC5)C4)CC3)C2=O)C(=O)N1 (stereo partly drawn) [Compound A146, 3-(1′-((8-(4-((3R,4S)-7-hydroxy-3-phenylchroman-4-yl)phenyl)-1-oxa-8-azaspiro[4.5]decan-3-yl)methyl)-6-oxo-6,8-dihydro-2H,7H-spiro[furo[2,3-e]isoindole-3,4′-piperidin]-7-yl)piperidine-2,6-dione] | ≥ 5 | 1 to 10 | 50 to 75 | < 50 | 1 to 10 | 25 to 50 | – | – | – | –
O=C1CC[C@@H](NC(=O)c2ccc(N3CCN(CC4COC5(CCN(c6ccc([C@H]7c8ccc(O)cc8OC[C@H]7c7ccccc7)cc6)CC5)C4)CC3)cn2)C(=O)N1 (single isomer, unassigned) [Compound A145] | < 5 | 1 to 10 | 50 to 75 | > 5000 | < 1 | 50 to 75 | – | – | – | –
O=C1CC[C@H](NC(=O)c2ccc3c(n2)OC[C@H]2CN(C[C@H]4COC5(CCN(c6ccc([C@@H]7c8ccc(O)cc8OC[C@@H]7c7ccccc7)cc6)CC5)C4)CCN32)C(=O)N1 [Compound A147, (R)-N-((S)-2,6-dioxopiperidin-3-yl)-3-(((S)-8-(4-((3S,4R)-7-hydroxy-3-phenylchroman-4-yl)phenyl)-1-oxa-8-azaspiro[4.5]decan-3-yl)methyl)-1,2,3,4,4a,5-hexahydropyrazino[1,2-d]pyrido[2,3-b][1,4]oxazine-8-carboxamide] | < 5 | < 1 | 50 to 75 | 500 to 5000 | < 1 | 50 to 75 | – | – | – | –
O=C1CCC(N2C(=O)c3cc4c(cc3C2=O)CN(CC(=O)N2CCC3(CC2)CN(c2ccc([C@@H]5c6ccc(O)cc6OC[C@@H]5c5ccccc5)cc2)C3)C4)C(=O)N1 (single isomer, unassigned) [Compound A44] | < 5 | 1 to 10 | 50 to 75 | 50 to 500 | < 1 | 50 to 75 | – | – | – | –
